The values below come from US5482964A, “Substituted phenoxyhydroxypropyl amines as central nervous system agents” (Warner-Lambert Company, priority 1994, dated 1996).

The target in one experiment is T1, P-type calcium channels (Rattus norvegicus, UniProt P54282).
T1 construct: Male rats (Sprague-Dawley, 200-220 g) were killed by decapitation and neocortices were isolated by blunt dissection; from tissue; host or cells: Sprague-Dawley rat neocortex, crude synaptosomes
Put plainly: Inhibition of depolarization induced Ca++ flux (CaFl), 45Ca++ influx into rat neocortical synaptosomes. Format: biochemical. To be noted: for IC50: 30 mM KCl stimulated 45Ca flux, rat neocortical synaptosomes; for inhibition at 10 µM / inhibition at 30 µM: read-out: CaFl, percent inhibition. The text has this:
A large influx of calcium from extracellular compartments into neurons is observed after opening of voltage-dependent calcium channels. The opening of calcium channels may be induced by a K^+ -stimulated depolarization of neuronal membranes. A crude synaptosomal preparation contains small vesicles surrounded by neuronal membranes, and it is feasible to study the opening of voltage-operated calcium channels in such a preparation. In the test described below, the influx of ^45 Ca^++ into rat synaptosomes is studied under depolarized conditions. The effect of the test compounds on the depolarization induced calcium update can thus be studied. The calcium influx measured in this assay is believed to represent the P-type calcium channels.
Male rats (Sprague-Dawley, 200-220 g) were killed by decapitation and neocortices were isolated by blunt dissection. White matter was dissected away and the gray matter was placed in cold sucrose buffer (composition (mM): sucrose 320, TRIS base 5.0, EDTA 0.1; adjusted to pH 7.3 with HCl). The tissue was homogenized using 5 strokes at 500 rpm followed by 4 strokes at 800 rpm. The homogenate was centrifuged at 1075 g for 10 minutes. The pellet was discarded and the supernatant was centrifuged at 15800 g for 10 minutes at 4° C., and the supernatant was discarded. The final pellet was resuspended in incubation buffer and kept on ice.
Fifty-microliter aliquots of neocortical synaptosome suspension were preincubated for 5 minutes at 25° C. in 400 μL of incubation buffer containing drug or control solvent. The synaptosomes were then exposed to a tracer quantity of ^45 CaCl2 (1 μCi/mL) in combination with either 3 mM KCl (basal calcium flux or 30 mM KCl (stimulated calcium flux). The calcium flux was terminated by filtration over glass-fiber filters (GFB) using a Skatron 12-well harvester; filters were washed with a pressurized, continuous flow of 3 mL wash buffer (composition (mM): choline chloride 140, EGTA 3, HEPES 22; adjusted to pH 7.3 with TRIS base). Radioactivity of the filters was measured by scintillation counting. Basal calcium flux was subtracted from stimulated calcium flux in both control- and drug-treated conditions, and data were expressed as percent inhibition of the adjusted control response.

For the next experiment, the target named is sodium channels. To be noted: rat neocortical membranes, 5 nM [3H]batrachotoxinin, Cheng-Prusoff; read-out: BTX Binding.

By IC50 is commonly meant the concentration that inhibits the measured activity by half. The inhibition is the drop in the measured response relative to a control, in per cent.

T1 sequence (P54282 whole entry): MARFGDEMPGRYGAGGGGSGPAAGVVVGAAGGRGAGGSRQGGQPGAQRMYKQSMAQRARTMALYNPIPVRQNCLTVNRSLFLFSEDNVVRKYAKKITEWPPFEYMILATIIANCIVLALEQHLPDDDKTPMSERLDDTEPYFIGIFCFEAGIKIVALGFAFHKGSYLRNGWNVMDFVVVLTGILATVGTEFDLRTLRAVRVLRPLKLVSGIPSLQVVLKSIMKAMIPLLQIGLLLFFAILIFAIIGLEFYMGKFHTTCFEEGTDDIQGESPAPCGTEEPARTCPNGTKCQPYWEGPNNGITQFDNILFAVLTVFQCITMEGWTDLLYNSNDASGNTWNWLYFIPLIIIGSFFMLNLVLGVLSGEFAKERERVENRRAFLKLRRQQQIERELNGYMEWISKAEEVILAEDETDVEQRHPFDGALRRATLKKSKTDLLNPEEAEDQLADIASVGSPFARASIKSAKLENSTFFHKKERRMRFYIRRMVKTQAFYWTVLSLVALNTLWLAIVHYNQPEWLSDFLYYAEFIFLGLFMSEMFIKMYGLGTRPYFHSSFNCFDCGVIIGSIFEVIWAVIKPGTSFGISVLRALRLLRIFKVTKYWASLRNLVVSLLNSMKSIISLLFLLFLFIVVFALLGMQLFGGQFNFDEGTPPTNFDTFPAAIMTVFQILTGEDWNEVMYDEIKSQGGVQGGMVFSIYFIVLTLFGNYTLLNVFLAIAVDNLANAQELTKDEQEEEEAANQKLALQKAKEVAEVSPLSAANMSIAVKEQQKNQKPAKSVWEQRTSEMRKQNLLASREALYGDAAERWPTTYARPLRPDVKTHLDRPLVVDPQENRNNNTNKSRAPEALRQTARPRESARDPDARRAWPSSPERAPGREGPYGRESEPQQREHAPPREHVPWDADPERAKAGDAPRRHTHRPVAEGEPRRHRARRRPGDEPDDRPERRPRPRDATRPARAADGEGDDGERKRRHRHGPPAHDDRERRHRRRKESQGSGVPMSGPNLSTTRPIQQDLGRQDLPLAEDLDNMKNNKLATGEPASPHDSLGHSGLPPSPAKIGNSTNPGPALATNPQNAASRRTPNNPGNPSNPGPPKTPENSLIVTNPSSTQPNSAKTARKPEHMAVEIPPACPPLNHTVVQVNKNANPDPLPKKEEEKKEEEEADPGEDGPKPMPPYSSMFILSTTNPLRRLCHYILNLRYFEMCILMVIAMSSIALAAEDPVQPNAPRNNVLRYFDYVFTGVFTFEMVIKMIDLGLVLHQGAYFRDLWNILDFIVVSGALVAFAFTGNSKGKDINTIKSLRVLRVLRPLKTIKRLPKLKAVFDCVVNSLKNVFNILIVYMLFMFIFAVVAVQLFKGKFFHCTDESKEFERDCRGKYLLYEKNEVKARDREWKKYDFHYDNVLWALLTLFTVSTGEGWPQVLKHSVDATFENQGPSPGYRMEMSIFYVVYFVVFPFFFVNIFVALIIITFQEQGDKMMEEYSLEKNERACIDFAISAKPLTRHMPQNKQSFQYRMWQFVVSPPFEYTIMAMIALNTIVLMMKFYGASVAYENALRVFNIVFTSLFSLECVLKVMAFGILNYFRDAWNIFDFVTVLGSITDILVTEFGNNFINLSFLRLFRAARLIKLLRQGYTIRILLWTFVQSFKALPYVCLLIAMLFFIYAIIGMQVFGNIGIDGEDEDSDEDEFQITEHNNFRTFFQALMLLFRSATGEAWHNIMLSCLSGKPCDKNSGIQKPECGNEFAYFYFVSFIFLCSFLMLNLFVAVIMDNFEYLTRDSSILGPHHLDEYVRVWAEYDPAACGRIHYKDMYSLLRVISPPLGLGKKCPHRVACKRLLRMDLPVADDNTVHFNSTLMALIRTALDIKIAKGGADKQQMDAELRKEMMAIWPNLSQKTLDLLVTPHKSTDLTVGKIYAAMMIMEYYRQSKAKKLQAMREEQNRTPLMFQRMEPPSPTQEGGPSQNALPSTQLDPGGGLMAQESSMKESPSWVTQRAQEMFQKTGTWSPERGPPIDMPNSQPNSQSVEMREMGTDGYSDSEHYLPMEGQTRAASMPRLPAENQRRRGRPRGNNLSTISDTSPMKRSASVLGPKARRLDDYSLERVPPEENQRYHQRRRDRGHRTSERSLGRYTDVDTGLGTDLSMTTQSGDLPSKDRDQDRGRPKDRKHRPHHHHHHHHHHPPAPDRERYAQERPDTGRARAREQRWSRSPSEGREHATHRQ

For `COc1ccc(CCN(Cc2ccc(F)cc2)CC(O)COc2cccc(C)c2)cc1OC` (centres unmarked) [Example 1, 1-[[2-(3,4-Dimethoxyphenyl)-ethyl]-(4-fluorobenzyl)amino]-3-m-tolyloxy-propan-2-ol], the concentration for half-maximal inhibition (IC50) on P-type calcium channels was 5.2 µM.

Turning to `COc1ccc(CCN(Cc2ccccc2)CC(O)COc2cccc(C)c2)cc1OC` (centres unmarked) [Example 2, 1-{Benzyl-[2-(3,4-dimethoxyphenyl)-ethyl]amino}-3-m-tolyloxy-propan-2-ol], the concentration for half-maximal inhibition (IC50) at P-type calcium channels was determined as 9.2 µM. Further, on sodium channels, the Ki was 0.52 µM.

On to `COc1ccc(CCN(Cc2ccc(Cl)cc2)CC(O)COc2cccc(C)c2)cc1OC` (centres unmarked) [Example 3, 1-{(4-Chlorobenzyl)-[2-(3,4-dimethoxyphenyl)-ethyl]-amino}-3-m-tolyloxy-propan-2-ol], for which, on P-type calcium channels, the inhibition at 10 µM stood at 44% and the inhibition at 30 µM worked out at 77%.

On to `COc1ccc(CCN(Cc2cccc(F)c2)CC(O)COc2cccc(C)c2)cc1OC` (centres unmarked) [Example 4, 1-[[2-(3,4-Dimethoxyphenyl)-ethyl]-(3-fluorobenzyl)amino]-3-m-tolyloxy-propan-2-ol], for which the IC50 at P-type calcium channels amounted to 6.6 µM.

Consider `COc1ccc(CCN(Cc2ccc([N+](=O)[O-])cc2)CC(O)COc2cccc(C)c2)cc1OC` (centres unmarked) [Example 5, 1-[[2-(3,4-Dimethoxyphenyl)-ethyl]-(4-nitrobenzyl)amino]-3-m-tolyloxy-propan-2-ol], for which, at P-type calcium channels, the inhibition at 10 µM is 59% and the inhibition at 30 µM was found to be 62%.

With `COc1ccc(CCN(Cc2cccc([N+](=O)[O-])c2)CC(O)COc2cccc(C)c2)cc1OC` (centres unmarked) [Example 6, 1-[[2-(3,4-Dimethoxyphenyl)-ethyl]-(3-nitrobenzyl)amino]-3-m-tolyloxy-propan-2-ol], at P-type calcium channels, the inhibition at 10 µM was found to be 57% and the inhibition at 30 µM amounted to 62%.

Turning to `COc1ccc(CCN(Cc2cccc(Cl)c2)CC(O)COc2cccc(C)c2)cc1OC` (centres unmarked) [Example 7, 1-{(3-Chlorobenzyl)-[2-(3,4-dimethoxyphenyl)ethyl]-amino}-3-m-tolyloxy-propan-2-ol], the inhibition at 10 µM at P-type calcium channels was 47%.

In the case of `COc1ccc(CN(CCc2ccc(OC)c(OC)c2)CC(O)COc2cccc(C)c2)cc1` (centres unmarked) [Example 8, 1-[[2-(3,4-Dimethoxyphenyl)-ethyl]-(4-methoxybenzyl)amino]-3-m-tolyloxy-propan-2-ol], the IC50 on P-type calcium channels was 5.4 µM. The Ki on sodium channels worked out at 0.152 µM.

With `COc1ccc(CCN(Cc2cccc3ccccc23)CC(O)COc2cccc(C)c2)cc1OC` (centres unmarked) [Example 9, 1-{[2-(3,4-Dimethoxyphenyl)-ethyl]-naphthalen-1-ylmethylamino}-3-m-tolyloxy-propan-2-ol], the IC50 on P-type calcium channels was 9.9 µM.

For the compound `COc1cccc(CN(CCc2ccc(OC)c(OC)c2)CC(O)COc2cccc(C)c2)c1` (centres unmarked) [Example 10, 1-[[2-(3,4-Dimethoxyphenyl)-ethyl]-(3-methoxybenzyl)amino]-3-m-tolyloxy-propan-2-ol], at P-type calcium channels, the concentration for half-maximal inhibition (IC50) stood at 5.1 µM.

As for `COc1ccc(CCN(Cc2ccccc2[N+](=O)[O-])CC(O)COc2cccc(C)c2)cc1OC` (centres unmarked) [Example 11, 1-[[2-(3,4-Dimethoxyphenyl)-ethyl]-(2-nitrobenzyl)amino]-3-m-tolyloxy-propan-2-ol], the IC50 on P-type calcium channels stood at 3.1 µM.

On to `COc1ccccc1CN(CCc1ccc(OC)c(OC)c1)CC(O)COc1cccc(C)c1` (centres unmarked) [Example 12, 1-[[2-(3,4-Dimethoxyphenyl)-ethyl]-(2-methoxybenzyl)amino]-3-m-tolyloxy-propan-2-ol], for which the IC50 on P-type calcium channels is 4.1 µM.

In the case of `COc1ccc(CCN(Cc2ccccc2F)CC(O)COc2cccc(C)c2)cc1OC` (centres unmarked) [Example 13, 1-[[2-(3,4-Dimethoxyphenyl)-ethyl]-(2-fluorobenzyl)amino]-3-m-tolyloxy-propan-2-ol], the IC50 at P-type calcium channels came out at 1.8 µM.

As for `COc1ccc(CCN(Cc2ccccc2)CC(O)COc2ccc(OCc3ccccc3)cc2)cc1OC` (centres unmarked) [Example 14, 1-{Benzyl-[2-(3,4-dimethoxyphenyl)-ethyl]-amino}-3-(4-benzyloxyphenoxy)-propan-2-ol], the IC50 at P-type calcium channels is 5 µM. In addition, the Ki at sodium channels came to 0.016 µM.

Consider `COc1ccc(CCN(Cc2ccccc2)CC(O)COc2ccc(C3CCCCC3)cc2C)cc1OC` (centres unmarked) [Example 15, 1-{Benzyl-[2-(3,4-dimethoxyphenyl)-ethyl]-amino}-3-(4-cyclohexyl-2-methylphenoxy)-propan-2-ol], for which, at P-type calcium channels, the IC50 was 9.2 µM.

In the case of `COc1ccc(CCN(Cc2ccccc2)CC(O)COc2ccc3c(c2)CCC3)cc1OC` (centres unmarked) [Example 16, 1-{Benzyl-[2-(3,4-dimethoxyphenyl)-ethyl]-amino}-3-(indan-5-yloxy)-propan-2-ol], the IC50 at P-type calcium channels was 4.8 µM.

On to `COc1ccc(CCN(Cc2ccccc2Cl)CC(O)COc2cccc(C)c2)cc1OC` (centres unmarked) [Example 17, 1-{(2-Chlorobenzyl)-[2-(3,4-dimethoxyphenyl)ethyl]-amino}-3-m-tolyloxy-propan-2-ol], for which, at P-type calcium channels, the inhibition at 10 µM amounted to 46% and the inhibition at 30 µM turned out to be 55%.

In the case of `COc1ccc(CCN(Cc2ccccc2)CC(O)COc2cccc3ccccc23)cc1OC` (centres unmarked) [Example 18, 1-{Benzyl-[2-(3,4-dimethoxyphenyl)-ethyl]-amino}-3-(naphthalen-1-yloxy)-propan-2-ol], at P-type calcium channels, the IC50 turned out to be 8.1 µM.

Regarding `COc1ccc(CCN(Cc2ccccc2)CC(O)CSc2cccc3ccccc23)cc1OC` (centres unmarked) [Example 19, 1-{Benzyl-[2-(3,4-dimethoxyphenyl)-ethyl]-amino}-3-(naphthalen-1-ylsulfanyl)-propan-2-ol], the IC50 on P-type calcium channels is 2.5 µM. Moreover, the Ki at sodium channels amounted to 0.2 µM.

As to `COc1ccc(CCN(Cc2ccccc2)CC(O)COc2cccc(C(F)(F)F)c2)cc1OC` (centres unmarked) [Example 20, 1-{Benzyl-[2-(3,4-dimethoxyphenyl)-ethyl]-amino}-3-(3-trifluoromethylphenoxy)-propan-2-ol], the IC50 on P-type calcium channels came out at 4.7 µM. The Ki at sodium channels was 0.62 µM.

As to `COc1ccc(CCN(Cc2ccccc2)CC(O)CSc2cccc(C(F)(F)F)c2)cc1OC` (centres unmarked) [Example 21, 1-{Benzyl-[2-(3,4-dimethoxyphenyl)-ethyl]-amino}-3-(3-trifluoromethylphenylsulfanyl)-propan-2-ol], the IC50 at P-type calcium channels worked out at 4.3 µM. Further, the Ki on sodium channels worked out at 0.44 µM.

Regarding `COc1ccc(CCN(CCc2ccccc2)CC(O)COc2cccc(C)c2)cc1OC` (centres unmarked) [Example 22, 1-{[2-(3,4-Dimethoxyphenyl)ethyl]-phenethylamino}-3-m-tolyloxy-propan-2-ol], at P-type calcium channels, the half-inhibitory concentration (IC50) was determined as 1.4 µM.

In the case of `COc1ccc(CCN(CC(O)COc2cccc(C)c2)CC2CCCCC2)cc1OC` (centres unmarked) [Example 23, 1-{Cyclohexylmethyl-[2-(3,4-dimethoxyphenyl)ethyl]-amino}-3-m-tolyloxy-propan-2-ol], the IC50 on P-type calcium channels turned out to be 1.9 µM.

Consider `COc1ccc(CCN(C)CC(O)COc2cccc(C)c2)cc1OC` (centres unmarked) [Example 25, 1-{[2-(3,4-Dimethoxyphenyl)-ethyl]-methylamino}-3-m-tolyloxy-propan-2-ol], for which the inhibition at 30 µM at P-type calcium channels was determined as 31%.

As to `COc1ccc(CCN(C)CC(O)COc2ccc(OCc3ccccc3)cc2)cc1OC` (centres unmarked) [Example 26, 1-(4-Benzyloxyphenoxy)-3-{[2-(3,4-dimethoxyphenyl)ethyl]-methylamino}-propan-2-ol], on P-type calcium channels, the IC50 came to 3.3 µM.

For the compound `COc1ccc(CCN(C)CC(O)COc2ccc3c(c2)CCC3)cc1OC` (centres unmarked) [Example 27], on P-type calcium channels, the inhibition at 10 µM was determined as 43% and the inhibition at 30 µM was determined as 69%.

`COc1ccc(CCN(C)CC(O)COc2cccc3ccccc23)cc1OC` (centres unmarked) [Example 28, 1-{[2-(3,4-Dimethoxyphenyl)-ethyl]-methylamino}-3-(naphthalen-1-yloxy)-propan-2-ol]: at P-type calcium channels, the IC50 is 6.8 µM.

Consider `COc1ccc(CCN(C)CC(O)CSc2cccc3ccccc23)cc1OC` (centres unmarked) [Example 29, 1-{[2-(3,4-Dimethoxyphenyl)-ethyl]-methylamino}-3-(naphthalen-1-ylsulfanyl)-propan-2-ol], for which the IC50 on P-type calcium channels came out at 3.6 µM.

Turning to `COc1ccc(CCN(Cc2c[nH]c3ccccc23)CC(O)COc2cccc(C)c2)cc1OC` (centres unmarked) [Example 30, 1-[[2-(3,4-Dimethoxyphenyl)ethyl]-(1H-indol-3-ylmethyl)-amino]-3-m-tolyloxypropan-2-ol], the IC50 at P-type calcium channels is 4.5 µM. Besides, on sodium channels, the Ki was 0.015 µM.
